From US20240239788A1, “SMALL MOLECULE INHIBITORS OF KRAS G12D MUTANT” (Merck Sharp & Dohme LLC, priority 2021, published 2024)
Read-outs that look alike come from different tables or passages of the source.

Columns and labels:
[1] = molecular target: KRAS protein containing G12D mutation (Homo sapiens (Human), UniProt P01116, G12D); test: SOS-catalyzed nucleotide exchange assay (GNE), TR-FRET; assay type: biochemical; settings: biotinylated KRAS G12D, SOS and GTP, 60-minute incubation
Protocol: Compounds are added to this complex and then after a 60-minute incubation time the mixture is treated with SOS and unlabeled GTP. Small molecule inhibitors stabilize the Bodipy-GDP complex whereas the untreated protein rapidly exchanges Bodipy-GDP for unlabeled GTP resulting in reduced TR-FRET signal.
This solution is referred to as biotinylated KRAS G12D stock solution.

[2] = test system: AsPC-1 cells containing homozygous KRAS-G12D activating mutation; test: Cellular phospho-ERK assay (Examples 1a-106); assay type: cell-based; settings: AsPC-1 cells, 2 hours, ratio of p-Erk vs total Erk, read-out: IC50 (nM) pERK (Cell)
Source text: 5% CO? overnight. […] Assay plates were read on a EnVision Multimode Plate Reader (PerkinElmer) and the ratio of p-Erk vs total Erk in each well was used as the final readout.

[3] = molecular target: KRAS G12D / Ras binding domain of C-RAF (Homo sapiens (Human), UniProt P01116, G12D); test: RAS:RAF-RBD binding assay (cRaf), TR-FRET; settings: biotinylated KRAS G12D, GST-C-RAF RBD
Chain of KRAS G12D / Ras binding domain of C-RAF (P01116 other isoform, or with tags, fused parts or gaps G12D (already in the parent)): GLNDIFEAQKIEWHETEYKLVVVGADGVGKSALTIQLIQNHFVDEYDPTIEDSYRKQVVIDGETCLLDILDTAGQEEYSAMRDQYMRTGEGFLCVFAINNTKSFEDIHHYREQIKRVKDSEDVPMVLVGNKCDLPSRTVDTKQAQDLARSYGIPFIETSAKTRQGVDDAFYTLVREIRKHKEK
Protocol: Compounds are added to KRAS and then after a 30-minute incubation time the RAF-RBD and detection antibodies are added. Small molecule inhibitors that block the interaction of c-RAF-RBD prevent generation of a TR-FRET signal.
Biotinylated KRAS G12D protein is diluted to 20 nM in assay buffer (20 mM HEPES pH 7.5, 150 mM sodium chloride, 10 mM magnesium chloride, and 0.01% Tween20).
Each test compound (10 mM stock in DMSO) is diluted in DMSO to make a 10-point, 3-fold dilution series in a 384-well low dead volume microplate (Labcyte, catalog #LP-0200).
Each well of the assay plate receives 5 μL of Biotinylated KRAS G12D assay solution and is incubated at room temperature for 30 minutes. Each well then receives 5 μL of 100 nM GST-C-RAF RBD protein and a 1:100 dilution of both anti-GST-d2 (Cisbio catalog #61GSTDLA) and Streptavidin-Tb cryptate (Cisbio catalog #610SATLA) in assay buffer and the plate is mixed and briefly centrifuged followed by a 60 minute incubation at room temperature.
The apparent effect as a function of compound concentration is fit to a four-parameter logistic equation.

Chain of KRAS protein containing G12D mutation (P01116 other isoform, or with tags, fused parts or gaps G12D (already in the parent)): as above

| Structure (SMILES) | IC50 [1] [nM] | IC50 ([2]; Homo sapiens, ASPC1, 2 h) [nM] | IC50 ([3]; IC50 (nM) (cRaf)) | IC50 [2] [nM] | IC50 ([3]; read-out: IC50 (nM) (cRaf)) |
| --- | --- | --- | --- | --- | --- |
| Cc1cc2[nH]nc(C)c2c(-c2c(F)cc3c(N4C[C@H]5CC[C@@](C)(C4)N5)nc(OC[C@]4(CN(C)C)CC4(F)F)nc3c2F)c1Cl [Ex 79, 1-((1R)-1-(((7-(5-chloro-3,6-dimethyl-1H-indazol-4-yl)-6,8-difluoro-4-((1S,5R)-1-methyl-3,8-diazabicyclo[3.2.1]octan-3-yl)quinazolin-2-yl)oxy)methyl)-2,2-difluorocyclopropyl)-N,N-dimethylmethanamine] | 72.5 | 1930 | 4410 | – | – |
| C[C@]12CC[C@H](CN(c3nc(OCC4(CN5CC[C@@H](F)C5)CC4)nc4c(F)c(-c5cc(O)cc6ccccc56)c(F)cc34)C1)N2 [Ex 81, 4-(6,8-difluoro-2-((1-(((R)-3-fluoropyrrolidin-1-yl)methyl)cyclopropyl)methoxy)-4-((1S,5R)-1-methyl-3,8-diazabicyclo[3.2.1]octan-3-yl)quinazolin-7-yl)naphthalen-2-ol] | 16.5 | 467 | 1980 | – | – |
| Cc1cc2[nH]ncc2c(-c2c(F)cc3c(N4C[C@H]5CC[C@@](C)(C4)N5)nc(OC[C@]4(CN(C)C)CC4(F)F)nc3c2F)c1C [Ex 82, 1-((1R)-1-(((7-(5,6-dimethyl-1H-indazol-4-yl)-6,8-difluoro-4-((1S,5R)-1-methyl-3,8-diazabicyclo[3.2.1]octan-3-yl)quinazolin-2-yl)oxy)methyl)-2,2-difluorocyclopropyl)-N,N-dimethylmethanamine] | 89.3 | 2200 | 14800 | – | – |
| Cc1c(Cl)cc2[nH]nc(C)c2c1-c1c(F)cc2c(N3C[C@H]4CC[C@@](C)(C3)N4)nc(OCC3(CN4CC[C@@H](F)C4)CC3)nc2c1F [Ex 84, 7-(6-chloro-3,5-dimethyl-1H-indazol-4-yl)-6,8-difluoro-2-((1-(((R)-3-fluoropyrrolidin-1-yl)methyl)cyclopropyl)methoxy)-4-((1S,5R)-1-methyl-3,8-diazabicyclo[3.2.1]octan-3-yl)quinazoline] | 156 | 6160 | 9320 | – | – |
| Cc1cc2[nH]nc(C)c2c(-c2c(F)cc3c(N4C[C@H]5CC[C@@](C)(C4)N5)nc(OCC4(CN5CC[C@@H](F)C5)CC4)nc3c2F)c1C [Ex 85, 6,8-difluoro-2-((1-(((R)-3-fluoropyrrolidin-1-yl)methyl)cyclopropyl)methoxy)-4-((1S,5R)-1-methyl-3,8-diazabicyclo [3.2.1]octan-3-yl)-7-(3,5,6-trimethyl-1H-indazol-4-yl)quinazoline] | 255 | 5620 | 18900 | – | – |
| Cc1cc2[nH]ncc2c(-c2c(F)cc3c(N4C[C@H]5CC[C@@](C)(C4)N5)nc(OC[C@@]45CCCN4C[C@H](F)C5)nc3c2F)c1C(F)(F)F [Ex 86, 6,8-difluoro-2-(((2R,7aS)-2-fluorotetrahydro-1H-pyrrolizin-7a(5H)-yl)methoxy)-7-(6-methyl-5-(trifluoromethyl)-1H-indazol-4-yl)-4-((1S,5R)-1-methyl-3,8-diazabicyclo [3.2.1]octan-3-yl)quinazoline] | 0.723 | 213 | 268 | – | – |
| CN1CCC[C@H]1COc1nc(N2CC3CCC(C2)N3)c2cc(Cl)c(-c3cc(O)cc4ccccc34)c(F)c2n1 [Ex. 5, 4-(4-(3.8-diazabicyclo[3.2.1]octan-3-yl)-6-chloro-8-fluoro-2-(((S)-1-methylpyrrolidin-2-yl)methoxy)quinazolin-7-yl)naphthalen-2-ol] | 106 | – | – | 6640 | 17300 |
| Cc1cc(N)nc(-c2c(F)cc3c(N4CC5CCC(C4)N5)nc(OCC4(CN5CCOCC5)CC4)nc3c2F)c1C(F)(F)F [Ex. 87, 6-(4-(3.8-diazabicyclo[3.2.1]octan-3-yl)-6,8-difluoro-2-((1-(morpholinomethyl)cyclopropyl)methoxy)quinazolin-7-yl)-4-methyl-5-(trifluoromethyl)pyridin-2-amine] | 37.4 | – | – | 1340 | 11400 |
| C[C@]12CC[C@H](CN(c3nc(OC[C@@]45CCCN4C[C@H](F)C5)nc4c(F)c(-c5cc(O)cc6cccc(Cl)c56)c(F)cc34)C1)N2 [Ex. 89, 5-chloro-4-(6,8-difluoro-2-(((2R,7aS)-2-fluorotetrahydro-1H-pyrrolizin-7a(5H)-yl)methoxy)-4-((1S,5R)-1-methyl-3,8-diazabicyclo[3.2.1]octan-3-yl)quinazolin-7-yl)naphthalen-2-ol] | 0.565 | 46 | 31.8 | – | – |
| C[C@]12CC[C@H](CN(c3nc(OCC4(CN5CC[C@@H](F)C5)CC4)nc4c3CCN(c3cccc5cccc(Br)c35)C4)C1)N2 [Ex. 93, 7-(8-bromonaphthalen-1-yl)-2-((1-(((R)-3-fluoropyrrolidin-1-yl)methyl)cyclopropyl)methoxy)-4-((1S,5R)-1-methyl-3,8-diazabicyclo[3.2.1]octan-3-yl)-5,6,7,8-tetrahydropyrido[3.4-d]pyrimidine] | 437 | – | – | 7130 | 35300 |
| O=c1oc(-c2cc(O)cc3ccccc23)cc2nc(OCC3(CN4CCOCC4)CC3)nc(N3CC4CCC(C3)N4)c12 [Ex. 95, 4-(3.8-diazabicyclo[3.2.1]octan-3-yl)-7-(3-hydroxynaphthalen-1-yl)-2-((1-(morpholinomethyl)cyclopropyl)methoxy)-5H-pyrano[4.3-d]pyrimidin-5-one] | 73.4 | – | – | 10800 | 15900 |
| C[C@]12CC[C@H](CN(c3nc(OC[C@@]45CCCN4C[C@H](F)C5)nc4c(F)c(-c5cc(O)cc6cccc(Cl)c56)ncc34)C1)N2 [Ex. 99, 5-chloro-4-(8-fluoro-2-(((2R,7aS)-2-fluorotetrahydro-1H-pyrrolizin-7a(5H)-yl)methoxy)-4-((1S,5R)-1-methyl-3,8-diazabicyclo[3.2.1]octan-3-yl)pyrido[4,3-d]pyrimidin-7-yl)naphthalen-2-ol] | 2.46 | 243 | – | – | 57.5 |
| CN(C)C[C@@]1(COc2nc(N3C[C@H]4CC[C@@](C)(C3)N4)c3cnc(-c4cc(O)cc5cccc(Cl)c45)c(F)c3n2)CC1(F)F [Ex. 100, 5-chloro-4-(2-(((R)-1-((dimethylamino)methyl)-2,2-difluorocyclopropyl)methoxy)-8-fluoro-4-((1S,5R)-1-methyl-3,8-diazabicyclo[3.2.1]octan-3-yl)pyrido[4,3-d]pyrimidin-7-yl)naphthalen-2-ol] | 1.56 | 99.8 | 89.9 | – | – |
| CN(C)CC1(COc2nc(N3C[C@H]4CC[C@@](C)(C3)N4)c3nnc(-c4cc(O)cc5ccccc45)cc3n2)CC1 [Ex. 101, 4-(6-((1-((dimethylamino)methyl)cyclopropyl)methoxy)-8-((1S,5R)-1-methyl-3,8-diazabicyclo[3.2.1]octan-3-yl)pyrimido[5,4-c]pyridazin-3-yl)naphthalen-2-ol] | 1020 | 42200 | 20900 | – | – |
| CN(C)CC1(COc2nc(N3C[C@@H]4CC[C@H]3CN4)c3cc(F)c(-c4cc(O)cc5ccccc45)c(F)c3n2)CC1 [Example 7, 4-(4-((1S,4S)-2,5-diazabicyclo[2.2.2]octan-2-yl)-2-((1-((dimethylamino)methyl)cyclopropyl)methoxy)-6,8-difluoroquinazolin-7-yl)naphthalen-2-ol] | 35.5 | 5020 | 2990 | – | – |
| CN(C)CC1(COc2nc(N3C[C@@H]4CC[C@](C)(C3)N4)c3cc(F)c(-c4cc(O)cc5ccccc45)c(F)c3n2)CC1 [Example 20, 4-(2-((1-((dimethylamino)methyl)cyclopropyl)methoxy)-6,8-difluoro-4-((1R,5S)-1-methyl-3,8-diazabicyclo[3.2.1]octan-3-yl)quinazolin-7-yl)naphthalen-2-ol] | 117 | 3500 | 14400 | – | – |
| CN(C)CC1(COc2nc(N3C[C@H]4CC[C@@](C)(C3)N4)c3cc(F)c(-c4cc(O)cc5ccccc45)c(F)c3n2)CC1 [Example 21, 4-(2-((1-((dimethyl-amino)methyl)cyclo-propyl)methoxy)-6,8-difluoro-4-((1S,5R)-1-methyl-3,8-diazabicy-clo[3.2.1]octan-3-yl)quinazolin-7-yl)naphthalen-2-ol] | 14.4 | 636 | 1980 | – | – |
| COC1CC2CN(c3nc(OCC4(CN(C)C)CC4)nc4c(F)c(-c5cc(O)cc6ccccc56)c(F)cc34)CC1N2 [Example 24, 4-(2-((1-((dimethylamino)meth-yl)cyclopropyl)meth-oxy)-6,8-difluoro-4-(6-methoxy-3,8-di-azabicyclo[3.2.1]octan-3-yl)quinazolin-7-yl)naphthalen-2-olR,R,] | 280 | – | – | 7110 | 10800 |
| COC1CC2CN(c3nc(OCC4(CN(C)C)CC4)nc4c(F)c(-c5cc(O)cc6ccccc56)c(F)cc34)CC1N2 (stereo not drawn) [Example 25, 4-(2-((1-((dimethyl-amino)methyl)cyclo-propyl)methoxy)-6,8-difluoro-4-(6-methoxy-3,8-diazabicyclo[3.2.1]oc-tan-3-yl)quinazolin-7-yl)naphthalen-2-ol] | 454 | 7070 | 20300 | – | – |
